Experimental data published in ChEMBL document CHEMBL4507307 (2021).
Activity calls are given as the source filed them. The rule behind the calls is not given here.

How the values were obtained:
[1] = biological target: Dual specificity protein kinase CLK1 (Homo sapiens, UniProt P49759); assay: NanoBRET (SGC Frankfurt) (CLK1)
[2] = biological target: Dual specificity protein kinase CLK4 (Homo sapiens, UniProt Q9HAZ1); assay: NanoBRET (SGC Frankfurt) (CLK4)
[3] = biological target: Dual specificity tyrosine-phosphorylation-regulated kinase 1A (Homo sapiens, UniProt Q13627); assay: NanoBRET (SGC Frankfurt) (DYRK1A)
[4] = biological target: Dual specificity tyrosine-phosphorylation-regulated kinase 1B (Homo sapiens, UniProt Q9Y463); assay: NanoBRET (SGC Frankfurt) (DYRK1B)
[5] = biological target: Serine/threonine-protein kinase SIK2 (Homo sapiens, UniProt Q9H0K1); assay: NanoBRET (SGC Frankfurt) (SIK2)
[6] = biological target: Receptor-type tyrosine-protein kinase FLT3 (Homo sapiens, UniProt P36888); assay: NanoBRET (SGC Frankfurt) (FLT3)
[7] = biological target: Receptor-type tyrosine-protein kinase FLT3 (Homo sapiens, UniProt P36888, D835V); assay: NanoBRET (SGC Frankfurt) (FLT3 (D835V))
[8] = biological target: 5-hydroxytryptamine receptor 1B (Homo sapiens, UniProt P28222); conditions: Compound concentration 10.0 uM
[9] = biological target: 5-hydroxytryptamine receptor 1D (Homo sapiens, UniProt P28221); conditions: Compound concentration 10.0 uM
[10] = biological target: 5-hydroxytryptamine receptor 1E (Homo sapiens, UniProt P28566); conditions: Compound concentration 10.0 uM
Chain of 5-hydroxytryptamine receptor 1E (P28566 whole entry): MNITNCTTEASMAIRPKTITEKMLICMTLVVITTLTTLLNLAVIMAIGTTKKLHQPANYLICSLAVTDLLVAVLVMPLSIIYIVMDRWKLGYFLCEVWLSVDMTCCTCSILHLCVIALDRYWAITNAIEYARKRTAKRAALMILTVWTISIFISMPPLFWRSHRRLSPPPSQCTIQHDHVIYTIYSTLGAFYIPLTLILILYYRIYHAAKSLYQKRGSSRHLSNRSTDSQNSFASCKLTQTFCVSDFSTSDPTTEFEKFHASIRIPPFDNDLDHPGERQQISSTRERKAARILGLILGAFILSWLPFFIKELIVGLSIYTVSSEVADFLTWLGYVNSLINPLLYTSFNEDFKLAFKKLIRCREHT

[11] = biological target: 5-hydroxytryptamine receptor 2A (Homo sapiens, UniProt P28223); conditions: Compound concentration 10.0 uM
[12] = biological target: 5-hydroxytryptamine receptor 2B (Homo sapiens) (UniProt P41595); conditions: Compound concentration 10.0 uM
[13] = biological target: 5-hydroxytryptamine receptor 3A (Homo sapiens) (UniProt P46098); conditions: Compound concentration 10.0 uM
[14] = biological target: 5-hydroxytryptamine receptor 5A (Homo sapiens, UniProt P47898); conditions: Compound concentration 10.0 uM
[15] = biological target: 5-hydroxytryptamine receptor 7 (Homo sapiens) (UniProt P34969); conditions: Compound concentration 10.0 uM
[16] = biological target: D(1A) dopamine receptor (Homo sapiens, UniProt P21728); conditions: Compound concentration 10.0 uM
[17] = biological target: D(2) dopamine receptor (Homo sapiens, UniProt P14416); conditions: Compound concentration 10.0 uM
Chain of D(2) dopamine receptor (P14416 whole entry): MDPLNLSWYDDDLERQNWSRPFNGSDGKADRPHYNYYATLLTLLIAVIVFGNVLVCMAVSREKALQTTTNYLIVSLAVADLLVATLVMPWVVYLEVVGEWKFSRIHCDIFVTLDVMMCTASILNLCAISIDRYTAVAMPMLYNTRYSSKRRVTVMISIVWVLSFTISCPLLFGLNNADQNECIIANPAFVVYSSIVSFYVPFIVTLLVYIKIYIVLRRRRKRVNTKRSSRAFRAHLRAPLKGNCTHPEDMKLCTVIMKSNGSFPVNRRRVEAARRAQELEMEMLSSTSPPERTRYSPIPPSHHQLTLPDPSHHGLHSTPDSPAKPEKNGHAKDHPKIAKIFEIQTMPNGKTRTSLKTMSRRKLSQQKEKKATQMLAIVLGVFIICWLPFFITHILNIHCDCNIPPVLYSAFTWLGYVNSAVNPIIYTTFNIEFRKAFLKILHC

[18] = biological target: D(3) dopamine receptor (Homo sapiens, UniProt P35462); conditions: Compound concentration 10.0 uM
[19] = biological target: D(4) dopamine receptor (Homo sapiens) (UniProt P21917); conditions: Compound concentration 10.0 uM
[20] = biological target: D(1B) dopamine receptor (Homo sapiens) (UniProt P21918); conditions: Compound concentration 10.0 uM
[21] = biological target: Sodium-dependent serotonin transporter (Homo sapiens) (UniProt P31645); conditions: Compound concentration 10.0 uM
[22] = biological target: Sodium-dependent noradrenaline transporter (Homo sapiens) (UniProt P23975); conditions: Compound concentration 10.0 uM
Chain of Sodium-dependent noradrenaline transporter (Homo sapiens) (P23975 whole entry): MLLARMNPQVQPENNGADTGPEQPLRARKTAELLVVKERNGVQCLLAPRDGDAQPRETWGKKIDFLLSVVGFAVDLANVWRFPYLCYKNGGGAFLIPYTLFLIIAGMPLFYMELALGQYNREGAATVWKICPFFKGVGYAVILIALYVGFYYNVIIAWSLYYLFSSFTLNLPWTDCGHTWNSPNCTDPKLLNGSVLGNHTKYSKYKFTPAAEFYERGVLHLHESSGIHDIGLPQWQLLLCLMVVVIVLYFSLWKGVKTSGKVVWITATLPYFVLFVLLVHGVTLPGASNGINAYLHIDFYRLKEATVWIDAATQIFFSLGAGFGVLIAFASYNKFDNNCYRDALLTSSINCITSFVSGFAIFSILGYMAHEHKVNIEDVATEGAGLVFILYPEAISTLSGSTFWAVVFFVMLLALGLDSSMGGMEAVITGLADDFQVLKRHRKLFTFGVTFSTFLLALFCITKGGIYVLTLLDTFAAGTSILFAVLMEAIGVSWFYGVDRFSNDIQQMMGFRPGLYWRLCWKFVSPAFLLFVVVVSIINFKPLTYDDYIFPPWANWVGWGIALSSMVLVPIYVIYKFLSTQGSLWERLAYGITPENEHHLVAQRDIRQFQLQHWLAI

[23] = biological target: Sodium-dependent dopamine transporter (Homo sapiens) (UniProt Q01959); conditions: Compound concentration 10.0 uM
[24] = biological target: Mu-type opioid receptor (Homo sapiens, UniProt P35372); conditions: Compound concentration 10.0 uM
Chain of Mu-type opioid receptor (P35372 whole entry): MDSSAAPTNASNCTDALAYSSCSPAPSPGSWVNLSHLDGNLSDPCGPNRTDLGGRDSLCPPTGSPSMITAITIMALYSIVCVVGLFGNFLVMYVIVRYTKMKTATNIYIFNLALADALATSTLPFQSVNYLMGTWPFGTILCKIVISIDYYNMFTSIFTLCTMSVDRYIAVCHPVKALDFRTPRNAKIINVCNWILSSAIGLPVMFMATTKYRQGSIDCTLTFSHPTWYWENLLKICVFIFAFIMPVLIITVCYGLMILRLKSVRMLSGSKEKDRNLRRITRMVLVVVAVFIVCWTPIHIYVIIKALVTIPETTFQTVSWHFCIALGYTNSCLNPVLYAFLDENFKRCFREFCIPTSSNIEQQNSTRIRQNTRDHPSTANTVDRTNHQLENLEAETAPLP

[25] = biological target: Delta-type opioid receptor (Homo sapiens) (UniProt P41143); conditions: Compound concentration 10.0 uM
[26] = biological target: Kappa-type opioid receptor (Homo sapiens, UniProt P41145); conditions: Compound concentration 10.0 uM
[27] = biological target: T1, GABA-A receptor; anion channel (Rattus norvegicus) (UniProt O09028+P15431+P18506+P18508+P19969+P20236+P23574+P23576+P28471+P28473+P30191+P62813+P63079+P63138+Q91ZM7+Q9ES14); conditions: Compound concentration 10.0 uM
[28] = biological target: Histamine H1 receptor (Homo sapiens, UniProt P35367); conditions: Compound concentration 10.0 uM
[29] = biological target: Histamine H2 receptor (Homo sapiens, UniProt P25021); conditions: Compound concentration 10.0 uM
[30] = biological target: Histamine H3 receptor (Homo sapiens) (UniProt Q9Y5N1); conditions: Compound concentration 10.0 uM
[31] = biological target: Histamine H4 receptor (Homo sapiens) (UniProt Q9H3N8); conditions: Compound concentration 10.0 uM
Chain of Histamine H4 receptor (Homo sapiens) (Q9H3N8 whole entry): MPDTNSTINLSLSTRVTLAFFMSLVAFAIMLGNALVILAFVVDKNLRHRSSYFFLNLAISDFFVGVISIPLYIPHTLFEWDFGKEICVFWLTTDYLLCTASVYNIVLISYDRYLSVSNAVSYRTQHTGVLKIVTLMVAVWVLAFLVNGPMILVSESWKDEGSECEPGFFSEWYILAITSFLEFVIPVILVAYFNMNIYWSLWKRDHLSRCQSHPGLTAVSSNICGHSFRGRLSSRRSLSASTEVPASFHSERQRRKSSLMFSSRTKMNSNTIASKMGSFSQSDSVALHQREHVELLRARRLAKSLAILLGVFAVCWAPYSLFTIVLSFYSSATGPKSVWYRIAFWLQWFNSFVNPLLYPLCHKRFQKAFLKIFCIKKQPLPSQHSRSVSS

[32] = biological target: Alpha-1A adrenergic receptor (Homo sapiens) (UniProt P35348); conditions: Compound concentration 10.0 uM
[33] = biological target: Alpha-1B adrenergic receptor (Homo sapiens) (UniProt P35368); conditions: Compound concentration 10.0 uM
Chain of Alpha-1B adrenergic receptor (Homo sapiens) (P35368 whole entry): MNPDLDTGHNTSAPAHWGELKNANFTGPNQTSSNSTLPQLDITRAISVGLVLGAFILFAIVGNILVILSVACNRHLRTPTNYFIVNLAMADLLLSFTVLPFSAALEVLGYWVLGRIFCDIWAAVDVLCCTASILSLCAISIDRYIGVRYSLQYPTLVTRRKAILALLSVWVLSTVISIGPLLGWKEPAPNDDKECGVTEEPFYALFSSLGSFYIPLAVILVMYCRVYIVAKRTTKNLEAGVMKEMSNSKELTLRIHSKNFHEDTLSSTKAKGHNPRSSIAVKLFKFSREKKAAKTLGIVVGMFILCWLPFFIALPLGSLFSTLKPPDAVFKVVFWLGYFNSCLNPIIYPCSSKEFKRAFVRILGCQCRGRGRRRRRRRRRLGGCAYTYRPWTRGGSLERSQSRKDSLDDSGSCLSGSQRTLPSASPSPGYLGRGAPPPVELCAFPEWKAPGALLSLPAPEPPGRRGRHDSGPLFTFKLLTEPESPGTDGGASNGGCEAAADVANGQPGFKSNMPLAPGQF

[34] = biological target: Alpha-2A adrenergic receptor (Homo sapiens) (UniProt P08913); conditions: Compound concentration 10.0 uM
Chain of Alpha-2A adrenergic receptor (Homo sapiens) (P08913 whole entry): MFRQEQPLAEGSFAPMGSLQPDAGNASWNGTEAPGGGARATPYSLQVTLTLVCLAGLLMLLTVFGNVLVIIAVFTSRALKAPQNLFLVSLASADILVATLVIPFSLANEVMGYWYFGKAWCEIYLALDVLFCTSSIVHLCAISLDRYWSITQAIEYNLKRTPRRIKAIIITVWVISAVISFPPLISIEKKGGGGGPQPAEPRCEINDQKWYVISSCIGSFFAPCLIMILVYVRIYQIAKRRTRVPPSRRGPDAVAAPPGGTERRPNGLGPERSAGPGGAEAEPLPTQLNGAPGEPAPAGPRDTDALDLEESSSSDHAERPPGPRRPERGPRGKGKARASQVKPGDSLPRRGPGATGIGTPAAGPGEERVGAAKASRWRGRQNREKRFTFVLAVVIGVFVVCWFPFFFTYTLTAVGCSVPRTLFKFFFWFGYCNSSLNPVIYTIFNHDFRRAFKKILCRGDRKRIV

[35] = biological target: Alpha-2B adrenergic receptor (Homo sapiens) (UniProt P18089); conditions: Compound concentration 10.0 uM
[36] = biological target: Alpha-2C adrenergic receptor (Homo sapiens) (UniProt P18825); conditions: Compound concentration 10.0 uM
[37] = biological target: Beta-1 adrenergic receptor (Homo sapiens) (UniProt P08588); conditions: Compound concentration 10.0 uM
Chain of Beta-1 adrenergic receptor (Homo sapiens) (P08588 whole entry, looked up): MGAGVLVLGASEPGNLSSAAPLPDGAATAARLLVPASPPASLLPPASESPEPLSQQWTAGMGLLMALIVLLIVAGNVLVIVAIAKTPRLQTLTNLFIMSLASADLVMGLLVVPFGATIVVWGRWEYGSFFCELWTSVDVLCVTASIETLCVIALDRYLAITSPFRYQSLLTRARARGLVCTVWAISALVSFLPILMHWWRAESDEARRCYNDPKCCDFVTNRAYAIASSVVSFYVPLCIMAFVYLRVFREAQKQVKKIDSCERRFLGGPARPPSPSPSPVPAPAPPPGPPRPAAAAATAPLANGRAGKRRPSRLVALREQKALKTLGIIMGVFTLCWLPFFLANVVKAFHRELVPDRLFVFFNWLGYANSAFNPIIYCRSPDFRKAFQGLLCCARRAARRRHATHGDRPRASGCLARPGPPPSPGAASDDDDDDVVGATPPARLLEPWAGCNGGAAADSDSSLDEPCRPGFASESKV

[38] = biological target: Beta-2 adrenergic receptor (Homo sapiens) (UniProt P07550); conditions: Compound concentration 10.0 uM
Chain of Beta-2 adrenergic receptor (Homo sapiens) (P07550 whole entry, looked up): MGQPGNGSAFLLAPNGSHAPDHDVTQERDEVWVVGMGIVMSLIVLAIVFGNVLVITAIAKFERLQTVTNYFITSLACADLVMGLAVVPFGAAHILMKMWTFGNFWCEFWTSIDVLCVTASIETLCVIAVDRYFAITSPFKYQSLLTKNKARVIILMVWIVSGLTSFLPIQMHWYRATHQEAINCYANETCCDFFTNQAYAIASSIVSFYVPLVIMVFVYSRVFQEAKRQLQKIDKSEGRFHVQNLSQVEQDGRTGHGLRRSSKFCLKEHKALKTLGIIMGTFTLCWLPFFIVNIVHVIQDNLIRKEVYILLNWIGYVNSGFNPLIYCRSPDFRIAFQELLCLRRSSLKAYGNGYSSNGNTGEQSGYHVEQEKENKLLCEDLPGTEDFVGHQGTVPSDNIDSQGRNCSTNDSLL

[39] = biological target: Muscarinic acetylcholine receptor M2 (Homo sapiens) (UniProt P08172); conditions: Compound concentration 10.0 uM
[40] = biological target: Muscarinic acetylcholine receptor M4 (Homo sapiens) (UniProt P08173); conditions: Compound concentration 10.0 uM
[41] = biological target: Muscarinic acetylcholine receptor M5 (Homo sapiens) (UniProt P08912); conditions: Compound concentration 10.0 uM
[42] = biological target: T1, GABA-A receptor; anion channel (Rattus norvegicus); conditions: Compound concentration 10.0 uM; remark: listed apart in the source
[43] = biological target: Sigma intracellular receptor 2 (Homo sapiens, UniProt Q5BJF2); conditions: Compound concentration 10.0 uM
[44] = biological target: Sigma non-opioid intracellular receptor 1 (Homo sapiens, UniProt Q99720); conditions: Compound concentration 10.0 uM
Chain of Sigma non-opioid intracellular receptor 1 (Q99720 whole entry): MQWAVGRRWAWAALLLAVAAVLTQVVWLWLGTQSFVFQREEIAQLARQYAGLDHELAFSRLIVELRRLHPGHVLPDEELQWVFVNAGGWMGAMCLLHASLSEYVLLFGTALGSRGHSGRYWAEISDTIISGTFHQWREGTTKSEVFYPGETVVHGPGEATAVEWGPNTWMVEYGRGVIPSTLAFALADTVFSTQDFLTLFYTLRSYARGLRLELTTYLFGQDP

Chain of Dual specificity protein kinase CLK1 (P49759 whole entry): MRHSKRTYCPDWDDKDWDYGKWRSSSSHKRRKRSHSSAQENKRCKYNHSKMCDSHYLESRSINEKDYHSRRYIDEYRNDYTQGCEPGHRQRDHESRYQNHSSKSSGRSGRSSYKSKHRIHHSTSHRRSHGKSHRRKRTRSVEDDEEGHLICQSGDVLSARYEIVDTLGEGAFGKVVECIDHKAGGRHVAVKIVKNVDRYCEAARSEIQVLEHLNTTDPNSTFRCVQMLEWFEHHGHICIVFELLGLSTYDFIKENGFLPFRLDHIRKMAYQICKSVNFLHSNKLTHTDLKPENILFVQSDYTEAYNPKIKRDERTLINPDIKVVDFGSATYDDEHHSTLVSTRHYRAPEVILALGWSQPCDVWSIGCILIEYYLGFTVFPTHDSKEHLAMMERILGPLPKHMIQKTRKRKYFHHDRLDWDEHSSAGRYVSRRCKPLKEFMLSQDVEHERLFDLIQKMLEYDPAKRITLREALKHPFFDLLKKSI

## CN1CCN(C(=O)C(C)(C)c2ccc(C(=O)Nc3cn4cc(-c5cc(C(C)(C)C)cc(C(C)(C)C)c5)ccc4n3)cc2)CC1 [T3-CLK-N]
[1]
  IC50: > 10000 nM (not active)
[2]
  IC50: > 10000 nM (not active)
[3]
  IC50: > 10000 nM (not active)
[4]
  IC50: > 10000 nM (not active)
[5]
  IC50: > 10000 nM (not active)
[6]
  IC50: > 10000 nM (not active)
[7]
  IC50: > 10000 nM (not active)
[8]
  inhibition: 66.9%
[9]
  inhibition: 50.5%
[10]
  inhibition: 60.5%
[11]
  inhibition: 92.3%
[12]
  inhibition: 44.1%
[13]
  inhibition: 6.47%
[14]
  inhibition: 83.2%
[15]
  inhibition: 45.2%
[16]
  inhibition: 58.2%
[17]
  inhibition: 57.5%
[18]
  inhibition: 78.9%
[19]
  inhibition: 34.8%
[20]
  inhibition: 29.7%
[21]
  inhibition: 26.3%
[22]
  inhibition: 40.8%
[23]
  inhibition: -0.51%
[24]
  inhibition: 55.7%
[25]
  inhibition: 46.2%
[26]
  inhibition: 54.4%
[27]
  inhibition: 4.08%
[28]
  inhibition: 83%
[29]
  inhibition: 86.8%
[30]
  inhibition: 43.8%
[31]
  inhibition: 31.9%
[32]
  inhibition: 66.4%
[33]
  inhibition: 50.5%
[34]
  inhibition: 83.7%
[35]
  inhibition: 77.6%
[36]
  inhibition: 88.5%
[37]
  inhibition: 28%
[38]
  inhibition: 17.2%
[39]
  inhibition: 6.55%
[40]
  inhibition: 0.99%
[41]
  inhibition: 30.8%
[42]
  inhibition: 13.5%
[43]
  inhibition: 97.9%
[44]
  inhibition: 90%

## CN1CCN(C(=O)C(C)(C)c2ccc(C(=O)Nc3cn4cc(-c5ccncc5)ccc4n3)cc2)CC1 [T3-CLK]
[1]
  IC50: 3.49 nM (active)
[2]
  IC50: 1.98 nM (active)
[3]
  IC50: 32 nM
[4]
  IC50: 67 nM
[5]
  IC50: 125 nM (not active)
[6]
  IC50: 668 nM (not active)
[7]
  IC50: 138 nM (not active)
[8]
  inhibition: 7.83%
[9]
  inhibition: 5.95%
[10]
  inhibition: -1.52%
[11]
  inhibition: -2.63%
[12]
  inhibition: -7.63%
[13]
  inhibition: 1.81%
[14]
  inhibition: 4%
[15]
  inhibition: -5.21%
[16]
  inhibition: 4.41%
[17]
  inhibition: 10.8%
[18]
  inhibition: 12.8%
[19]
  inhibition: 9.12%
[20]
  inhibition: -7.3%
[21]
  inhibition: -3.55%
[22]
  inhibition: 5.3%
[23]
  inhibition: 8.33%
[24]
  inhibition: 5.33%
[25]
  inhibition: 4.05%
[26]
  inhibition: -6.32%
[27]
  inhibition: -5.11%
[28]
  inhibition: 54.9%
[29]
  inhibition: 19.4%
[30]
  inhibition: 16.6%
[31]
  inhibition: 0.74%
[32]
  inhibition: -5.18%
[33]
  inhibition: 4.68%
[34]
  inhibition: 2.61%
[35]
  inhibition: 19.3%
[36]
  inhibition: 17.2%
[37]
  inhibition: -7.22%
[38]
  inhibition: 16.6%
[39]
  inhibition: 3.82%
[40]
  inhibition: 25.2%
[41]
  inhibition: 9.31%
[42]
  inhibition: 7.47%
[43]
  inhibition: 13.4%
[44]
  inhibition: 16.9%
